Laboratory results published in patent US20230021483A1, “[…] […] METHOD AND CLASSIFICATION OF PHARMACEUTICAL COMPONENTS BY USING TRANSCRIPTOMES” (National Institutes of Biomedical Innovation, Health and …, priority 2016, published 2023).

Key:
liver (LV) = test: Whole organ transcriptome (GeneChip microarray) of liver 6 h after adjuvant administration: sDEGs, hierarchical clustering; assay type: in vivo, C57BL/6 mice; details: liver; for Number of gene probes with statistically significant changes (sDEGs), LV, Down: fold change <0.667, p<0.01, customized PA call=1; for Number of gene probes with statistically significant changes (sDEGs), LV, Down / Number of gene probes with statistically significant changes (sDEGs), LV, Up: 6 h after adjuvant; for Number of gene probes with statistically significant changes (sDEGs), LV, Up: fold change >1.5, p<0.01, customized PA call=1; as to adjuvant group (cluster) in LV: key: G1 (interferon signaling); G2 (metabolism of lipids and lipoproteins); G3 (response to stress); G4 (response to wounding); G5 (phosphate-containing compound metabolic process); G6 (phagosome)
[1] = system: adjuvant-associated biological themes in LV, SP, LN
Procedure, shortened: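 Enrichment score S sums −log(p) over consensus themes whose names contain a pre-selected adjuvant-associated term such as "stress" or "cytokine". Consensus requires a theme in all three mice of a group, p<0.05. Themes come from TargetMine analysis of genes with eij/ei(c)>2.0, Fisher's exact test, Holm-Bonferroni-corrected.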

CC(O)COC[C@H]1O[C@@H]2O[C@H]3[C@H](O)[C@@H](O)[C@@H](O[C@H]4[C@H](O)[C@@H](O)[C@@H](O[C@H]5[C@H](O)[C@@H](O)[C@@H](O[C@H]6[C@H](O)[C@@H](O)[C@@H](O[C@H]7[C@H](O)[C@@H](O)[C@@H](O[C@H]8[C@H](O)[C@@H](O)[C@@H](O[C@H]1[C@H](O)[C@H]2O)O[C@@H]8COCC(C)O)O[C@@H]7COCC(C)O)O[C@@H]6COCC(C)O)O[C@@H]5COCC(C)O)O[C@@H]4COCC(C)O)O[C@@H]3COCC(C)O (stereo partly drawn) [bCD, Hydroxypropyl-beta-cyclodextrin]
adjuvant group (cluster) in LV (liver (LV); hierarchical clustering): G2
Number of gene probes with statistically significant changes (sDEGs), LV, Down (liver (LV); i.d. administration): 315
Number of gene probes with statistically significant changes (sDEGs), LV, Up (liver (LV); i.d. administration): 107
Number of gene probes with statistically significant changes (sDEGs), LV, Down (liver (LV); i.p. administration): 20
Number of gene probes with statistically significant changes (sDEGs), LV, Up (liver (LV); i.p. administration): 14
GO annotation: Cytokine-cytokine receptor interaction (Term: cytokine) ([1]; LV, ID): 4.24
GO annotation: Cytokine-cytokine receptor interaction|Endocytosis (Term: cytokine) ([1]; LV, ID): 7.76
GO annotation: I-kappaB kinase/NF-kappaB signaling (Term: NF-kappa B signaling pathway) ([1]; LV, ID): 4.21
GO annotation: NF-kappa B signaling pathway (Term: NF-kappa B signaling pathway) ([1]; LV, ID): 6.86
GO annotation: TNF signaling pathway (Term: TNF signaling pathway) ([1]; LV, ID): 10.6
GO annotation: activation of immune response (Term: immune response) ([1]; LV, ID): 0
GO annotation: activation of innate immune response (Term: innate immune response) ([1]; LV, ID): 0
GO annotation: acute inflammatory response (Term: inflammatory response) ([1]; LV, ID): 0
GO annotation: adaptive immune response (Term: adaptive immune response) ([1]; LV, ID): 0
GO annotation: apoptotic process (Term: apoptosis) ([1]; LV, ID): 0
GO annotation: apoptotic signaling pathway (Term: apoptosis) ([1]; LV, ID): 0
GO annotation: cell chemotaxis (Term: chemotaxis) ([1]; LV, ID): 5.73
GO annotation: cell death (Term: cell death) ([1]; LV, ID): 5.8
GO annotation: cell migration (Term: migration) ([1]; LV, ID): 0
GO annotation: cellular response to cytokine stimulus (Term: cytokine) ([1]; LV, ID): 0
GO annotation: cellular response to interferon-alpha (Term: IFN alpha) ([1]; LV, ID): 0
GO annotation: cellular response to stress (Term: stress) ([1]; LV, ID): 0
GO annotation: chemokine production (Term: chemokine) ([1]; LV, ID): 0
GO annotation: chemokine-mediated signaling pathway (Term: chemokine) ([1]; LV, ID): 0
GO annotation: chemotaxis (Term: chemotaxis) ([1]; LV, ID): 0
GO annotation: cytokine biosynthetic process (Term: cytokine) ([1]; LV, ID): 0
GO annotation: cytokine metabolic process (Term: cytokine) ([1]; LV, ID): 0
GO annotation: cytokine production (Term: cytokine) ([1]; LV, ID): 3.82
GO annotation: cytokine secretion (Term: cytokine) ([1]; LV, ID): 0
GO annotation: cytokine-mediated signaling pathway (Term: cytokine) ([1]; LV, ID): 0
GO annotation: death (Term: cell death) ([1]; LV, ID): 0
GO annotation: defense response (Term: defense response) ([1]; LV, ID): 8.51
GO annotation: defense response to Gram-positive bacterium (Term: defense response) ([1]; LV, ID): 0
GO annotation: defense response to bacterium (Term: defense response) ([1]; LV, ID): 0
GO annotation: defense response to other organism (Term: defense response) ([1]; LV, ID): 0
GO annotation: defense response to protozoan (Term: defense response) ([1]; LV, ID): 0
GO annotation: defense response to virus (Term: defense response) ([1]; LV, ID): 0
GO annotation: granulocyte chemotaxis (Term: chemotaxis) ([1]; LV, ID): 0
GO annotation: granulocyte migration (Term: migration) ([1]; LV, ID): 0
GO annotation: immune response (Term: immune response) ([1]; LV, ID): 0
GO annotation: immune response-activating signal transduction (Term: immune response) ([1]; LV, ID): 0
GO annotation: immune response-regulating signaling pathway (Term: immune response) ([1]; LV, ID): 0
GO annotation: inflammatory response (Term: inflammatory response) ([1]; LV, ID): 10.9
GO annotation: innate immune response (Term: innate immune response) ([1]; LV, ID): 0
GO annotation: innate immune response-activating signal transduction (Term: innate immune response) ([1]; LV, ID): 0
GO annotation: interferon-alpha production (Term: IFN alpha) ([1]; LV, ID): 0
GO annotation: intrinsic apoptotic signaling pathway (Term: apoptosis) ([1]; LV, ID): 0
GO annotation: leukocyte chemotaxis (Term: chemotaxis) ([1]; LV, ID): 0
GO annotation: leukocyte migration (Term: migration) ([1]; LV, ID): 0
GO annotation: leukocyte migration involved in inflammatory response (Term: inflammatory response) ([1]; LV, ID): 0
GO annotation: lymphocyte chemotaxis (Term: chemotaxis) ([1]; LV, ID): 0
GO annotation: lymphocyte migration (Term: migration) ([1]; LV, ID): 0
GO annotation: myeloid leukocyte migration (Term: migration) ([1]; LV, ID): 0
GO annotation: negative regulation of apoptotic process (Term: apoptosis) ([1]; LV, ID): 0
GO annotation: negative regulation of cell death (Term: cell death) ([1]; LV, ID): 0
GO annotation: negative regulation of cytokine production (Term: cytokine) ([1]; LV, ID): 0
GO annotation: negative regulation of defense response (Term: defense response) ([1]; LV, ID): 0
GO annotation: negative regulation of immune response (Term: immune response) ([1]; LV, ID): 0
GO annotation: negative regulation of innate immune response (Term: innate immune response) ([1]; LV, ID): 0
GO annotation: negative regulation of programmed cell death (Term: cell death) ([1]; LV, ID): 0
GO annotation: neutrophil chemotaxis (Term: chemotaxis) ([1]; LV, ID): 0
GO annotation: neutrophil migration (Term: migration) ([1]; LV, ID): 0
GO annotation: positive regulation of I-kappaB kinase/NF-kappaB signaling (Term: NF-kappa B signaling pathway) ([1]; LV, ID): 0
GO annotation: positive regulation of adaptive immune response (Term: adaptive immune response) ([1]; LV, ID): 0
GO annotation: positive regulation of apoptotic process (Term: apoptosis) ([1]; LV, ID): 0
GO annotation: positive regulation of cell death (Term: cell death) ([1]; LV, ID): 0
GO annotation: positive regulation of cell migration (Term: migration) ([1]; LV, ID): 0
GO annotation: positive regulation of chemokine production (Term: chemokine) ([1]; LV, ID): 0
GO annotation: positive regulation of chemotaxis (Term: chemotaxis) ([1]; LV, ID): 0
GO annotation: positive regulation of cytokine biosynthetic process (Term: cytokine) ([1]; LV, ID): 0
GO annotation: positive regulation of cytokine production (Term: cytokine) ([1]; LV, ID): 0
GO annotation: positive regulation of defense response (Term: defense response) ([1]; LV, ID): 0
GO annotation: positive regulation of immune response (Term: immune response) ([1]; LV, ID): 0
GO annotation: positive regulation of inflammatory response (Term: inflammatory response) ([1]; LV, ID): 0
GO annotation: positive regulation of innate immune response (Term: innate immune response) ([1]; LV, ID): 0
GO annotation: positive regulation of interferon-alpha production (Term: IFN alpha) ([1]; LV, ID): 0
GO annotation: positive regulation of leukocyte chemotaxis (Term: chemotaxis) ([1]; LV, ID): 0
GO annotation: positive regulation of leukocyte migration (Term: migration) ([1]; LV, ID): 0
GO annotation: positive regulation of programmed cell death (Term: cell death) ([1]; LV, ID): 0
GO annotation: positive regulation of response to wounding (Term: wounding) ([1]; LV, ID): 0
GO annotation: positive regulation of tumor necrosis factor superfamily cytokine (Term: cytokine) ([1]; LV, ID): 0
GO annotation: production of molecular mediator of immune response (Term: immune response) ([1]; LV, ID): 0
GO annotation: programmed cell death (Term: cell death) ([1]; LV, ID): 0
GO annotation: regulation of I-kappaB kinase/NF-kappaB signaling (Term: NF-kappa B signaling pathway) ([1]; LV, ID): 0
GO annotation: regulation of adaptive immune response (Term: adaptive immune response) ([1]; LV, ID): 0
GO annotation: regulation of apoptotic process (Term: apoptosis) ([1]; LV, ID): 0
GO annotation: regulation of apoptotic signaling pathway (Term: apoptosis) ([1]; LV, ID): 0
GO annotation: regulation of cell death (Term: cell death) ([1]; LV, ID): 0
GO annotation: regulation of cell migration (Term: migration) ([1]; LV, ID): 0
GO annotation: regulation of chemokine production (Term: chemokine) ([1]; LV, ID): 0
GO annotation: regulation of chemotaxis (Term: chemotaxis) ([1]; LV, ID): 0
GO annotation: regulation of cytokine biosynthetic process (Term: cytokine) ([1]; LV, ID): 0
GO annotation: regulation of cytokine production (Term: cytokine) ([1]; LV, ID): 4.06
GO annotation: regulation of defense response (Term: defense response) ([1]; LV, ID): 6.85
GO annotation: regulation of defense response to virus (Term: defense response) ([1]; LV, ID): 0
GO annotation: regulation of defense response to virus by host (Term: defense response) ([1]; LV, ID): 0
GO annotation: regulation of immune response (Term: immune response) ([1]; LV, ID): 0
GO annotation: regulation of inflammatory response (Term: inflammatory response) ([1]; LV, ID): 7.33
GO annotation: regulation of innate immune response (Term: innate immune response) ([1]; LV, ID): 0
GO annotation: regulation of interferon-alpha production (Term: IFN alpha) ([1]; LV, ID): 0
GO annotation: regulation of intrinsic apoptotic signaling pathway (Term: apoptosis) ([1]; LV, ID): 0
GO annotation: regulation of leukocyte chemotaxis (Term: chemotaxis) ([1]; LV, ID): 0
GO annotation: regulation of leukocyte migration (Term: migration) ([1]; LV, ID): 0
GO annotation: regulation of programmed cell death (Term: cell death) ([1]; LV, ID): 0
GO annotation: regulation of response to stress (Term: stress) ([1]; LV, ID): 0
GO annotation: regulation of response to wounding (Term: wounding) ([1]; LV, ID): 6.31
GO annotation: regulation of tumor necrosis factor superfamily cytokine production (Term: cytokine) ([1]; LV, ID): 0
GO annotation: response to cytokine (Term: cytokine) ([1]; LV, ID): 7.77
GO annotation: response to interferon-alpha (Term: IFN alpha) ([1]; LV, ID): 0
GO annotation: response to stress (Term: stress) ([1]; LV, ID): 10.4
GO annotation: response to wounding (Term: wounding) ([1]; LV, ID): 5.85
GO annotation: taxis (Term: chemotaxis) ([1]; LV, ID): 0
GO annotation: tumor necrosis factor superfamily cytokine production (Term: cytokine) ([1]; LV, ID): 0
IFN beta: cellular response to interferon-beta ([1]; LV, ID): 0
IFN beta: interferon-beta production ([1]; LV, ID): 0
IFN beta: positive regulation of interferon-beta production ([1]; LV, ID): 0
IFN beta: regulation of interferon-beta production ([1]; LV, ID): 0
IFN beta: response to interferon-beta ([1]; LV, ID): 0
IFN gamma: cellular response to interferon-gamma ([1]; LV, ID): 0
IFN gamma: interferon-gamma production ([1]; LV, ID): 0
IFN gamma: regulation of interferon-gamma production ([1]; LV, ID): 0
IFN gamma: response to interferon-gamma ([1]; LV, ID): 0
interleukin-6: interleukin-6 production ([1]; LV, ID): 0
interleukin-6: positive regulation of interleukin-6 production ([1]; LV, ID): 0
interleukin-6: regulation of interleukin-6 production ([1]; LV, ID): 0
interleukin-12: interleukin-12 production ([1]; LV, ID): 0
interleukin-12: positive regulation of interleukin-12 production ([1]; LV, ID): 0
interleukin-12: regulation of interleukin-12 production ([1]; LV, ID): 0
GO annotation: adaptive immune response based on somatic recombination of immune receptors built from immunoglobulin superfamily domains (Term: adaptive immune response) ([1]; mouse, in vivo): 0
GO annotation: regulation of adaptive immune response based on somatic recombination of immune receptors built from immunoglobulin superfamily domains (Term: adaptive immune response) ([1]; mouse, in vivo): 0
